Experiments:
blackgrass [1] = assay: Test A preemergence; assay type: in vivo, Alopecurus myosuroides
Summary of the method: (§1)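 Plants were grown in loam and sand and treated preemergence or postemergence (one- to two-leaf stage, 2–10 cm) with compound in solvent plus surfactant. Response was scored against untreated controls after 10 greenhouse days, where 0 means no effect and 100 complete control.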

corn [2] = assay: Test A preemergence; assay type: in vivo, Zea mays
Summary of the method: as §1

foxtail, giant [3] = assay: Test A preemergence; assay type: in vivo, Setaria faberi
Summary of the method: as §1

goosegrass [4] = assay: Test A preemergence; assay type: in vivo, Eleusine indica
Summary of the method: as §1

kochia [5] = assay: Test A preemergence; assay type: in vivo, Bassia scoparia
Summary of the method: as §1

oat, wild [6] = assay: Test A preemergence; assay type: in vivo, Avena fatua
Summary of the method: as §1

pigweed, palmer [7] = assay: Test A preemergence; assay type: in vivo, Amaranthus palmeri
Summary of the method: as §1

ragweed [8] = assay: Test A preemergence; assay type: in vivo, Ambrosia artemisiifolia
Summary of the method: as §1

ryegrass, Italian [9] = assay: Test A preemergence; assay type: in vivo, Lolium multiflorum
Summary of the method: as §1

soybean [10] = assay: Test A preemergence; assay type: in vivo, Glycine max
Summary of the method: as §1

wheat [11] = assay: Test A preemergence; assay type: in vivo, Triticum aestivum
Summary of the method: as §1

blackgrass [12] = assay: Test A postemergence; assay type: in vivo, Alopecurus myosuroides
Summary of the method: as §1

corn [13] = assay: Test A postemergence; assay type: in vivo, Zea mays; details: postemergence, 10 days; for Plant response rating, Corn: visual injury, 0 to 100 scale (0 no effect, 100 complete control)
Summary of the method: as §1

foxtail, giant [14] = assay: Test A postemergence; assay type: in vivo, Setaria faberi; details: postemergence, 10 days; for Plant response rating, Foxtail, Giant: visual injury, 0 to 100 scale (0 no effect, 100 complete control)
Summary of the method: as §1

goosegrass [15] = assay: Test A postemergence; assay type: in vivo, Eleusine indica; details: postemergence, 10 days; for Plant response rating, Goosegrass: visual injury, 0 to 100 scale (0 no effect, 100 complete control)
Summary of the method: as §1

kochia [16] = assay: Test A postemergence; assay type: in vivo, Bassia scoparia; details: postemergence, 10 days; for Plant response rating, Kochia: visual injury, 0 to 100 scale (0 no effect, 100 complete control)
Summary of the method: as §1

oat, wild [17] = assay: Test A postemergence; assay type: in vivo, Avena fatua; details: postemergence, 10 days; for Plant response rating, Oat, Wild: 500 g ai/ha, visual injury, 0 to 100 scale (0 no effect, 100 complete control)
Summary of the method: as §1

pigweed, palmer [18] = assay: Test A postemergence; assay type: in vivo, Amaranthus palmeri; details: postemergence, 10 days; for Plant response rating, Pigweed, Palmer: 500 g ai/ha, visual injury, 0 to 100 scale (0 no effect, 100 complete control)
Summary of the method: as §1

ragweed [19] = assay: Test A postemergence; assay type: in vivo, Ambrosia artemisiifolia; details: postemergence, 10 days; for Plant response rating, Ragweed: 500 g ai/ha, visual injury, 0 to 100 scale (0 no effect, 100 complete control)
Summary of the method: as §1

ryegrass, Italian [20] = assay: Test A postemergence; assay type: in vivo, Lolium multiflorum; details: postemergence, 10 days; for Plant response rating, Ryegrass, Italian: 500 g ai/ha, visual injury, 0 to 100 scale (0 no effect, 100 complete control)
Summary of the method: as §1

soybean [21] = assay: Test A postemergence; assay type: in vivo, Glycine max; details: postemergence, 10 days; for Plant response rating, Soybean: 500 g ai/ha, visual injury, 0 to 100 scale (0 no effect, 100 complete control)
Summary of the method: as §1

wheat [22] = assay: Test A postemergence; assay type: in vivo, Triticum aestivum; details: postemergence, 10 days; for Plant response rating, Wheat: 500 g ai/ha, visual injury, 0 to 100 scale (0 no effect, 100 complete control)
Summary of the method: as §1

galium = assay: Test A postemergence; assay type: in vivo, Galium aparine; details: postemergence, 10 days; for Plant response rating, Galium: visual injury, 0 to 100 scale (0 no effect, 100 complete control)
Summary of the method: as §1

horseweed = assay: Test A postemergence; assay type: in vivo, Erigeron canadensis; details: postemergence, 10 days; for Plant response rating, Horseweed: visual injury, 0 to 100 scale (0 no effect, 100 complete control)
Summary of the method: as §1

barnyardgrass = assay: Test B flooded paddy test; assay type: in vivo, Echinochloa crus-galli; details: 250 g ai/ha, Flood, 13 days, 0 to 100 scale (0 no effect, 100 complete control)
Summary of the method: (§2)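 Application into standing water (3 cm above soil) at the two-leaf stage; flood depth held constant. Evaluation: day 13, visual comparison with controls, 0 = no injury, 100 = complete control.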

ducksalad = assay: Test B flooded paddy test; assay type: in vivo, Heteranthera limosa; details: 250 g ai/ha, Flood, 13 days, 0 to 100 scale (0 no effect, 100 complete control)
Summary of the method: as §2

rice = assay: Test B flooded paddy test; assay type: in vivo, Oryza sativa; details: 250 g ai/ha, Flood, 13 days, 0 to 100 scale (0 no effect, 100 complete control)
Summary of the method: as §2

sedge, umbrella = assay: Test B flooded paddy test; assay type: in vivo, Cyperus difformis; details: 250 g ai/ha, Flood, 13 days, 0 to 100 scale (0 no effect, 100 complete control)
Summary of the method: as §2

[23] = 125 g ai/ha, visual injury after 10 days, 0 to 100 scale, 0 is no effect, 100 is complete control
[24] = 500 g ai/ha, 0 to 100 scale (0 no effect, 100 complete control), 10 days
[25] = 125 g ai/ha, 0 to 100 scale, 0 no effect, 100 complete control

With `CC(C)c1ncn(-c2ccc(O)c(C(=O)N3C[C@H](C)Oc4c(Cl)cccc43)c2)n1` [Compound 105] the “Plant response rating, Blackgrass” value (blackgrass [1]; [23]) was 10, the “Plant response rating, Blackgrass” value (blackgrass [1]; [24]) was 20 and the “Plant response rating, Corn” value (corn [2]; [23]) was 0. For the same compound, the “Plant response rating, Corn” value (corn [2]; [24]) was 0, the “Plant response rating, Foxtail, Giant” value (foxtail, giant [3]; [23]) was 70 and the “Plant response rating, Foxtail, Giant” value (foxtail, giant [3]; [24]) was 100. For the same compound, the “Plant response rating, Goosegrass” value (goosegrass [4]; [23]) was 60, the “Plant response rating, Goosegrass” value (goosegrass [4]; [24]) was 100 and the “Plant response rating, Kochia” value (kochia [5]; [23]) was 50. The “Plant response rating, Kochia” value (kochia [5]; [24]) was 90, the “Plant response rating, Oat, Wild” value (oat, wild [6]; [23]) was 70 and the “Plant response rating, Oat, Wild” value (oat, wild [6]; [24]) was 70. For the same compound, the “Plant response rating, Pigweed, Palmer” value (pigweed, palmer [7]; [23]) was 30, the “Plant response rating, Pigweed, Palmer” value (pigweed, palmer [7]; [24]) was 90 and the “Plant response rating, Ragweed” value (ragweed [8]; [23]) was 0. The “Plant response rating, Ragweed” value (ragweed [8]; [24]) was 0, the “Plant response rating, Ryegrass, Italian” value (ryegrass, Italian [9]; [23]) was 40 and the “Plant response rating, Ryegrass, Italian” value (ryegrass, Italian [9]; [24]) was 80. For the same compound, the “Plant response rating, Soybean” value (soybean [10]; [23]) was 0, the “Plant response rating, Soybean” value (soybean [10]; [24]) was 0 and the “Plant response rating, Wheat” value (wheat [11]; [23]) was 0. The “Plant response rating, Wheat” value (wheat [11]; [24]) was 10, the “Blackgrass plant response rating” value (blackgrass [12]; 125 g ai/ha, postemergence, 10 days, 0 to 100 scale, 0 no effect, 100 complete control) was 30 and the “Plant response rating, Blackgrass” value (blackgrass [12]; 500 g ai/ha, postemergence, 10 days, visual injury, 0 to 100 scale (0 no effect, 100 complete control)) was 30. For the same compound, the “Corn plant response rating” value (corn [13]; [25]) was 20, the “Plant response rating, Corn” value (corn [13]; 500 g ai/ha) was 50 and the “Foxtail, Giant plant response rating” value (foxtail, giant [14]; [25]) was 20. For the same compound, the “Plant response rating, Foxtail, Giant” value (foxtail, giant [14]; 500 g ai/ha) was 80, the “Goosegrass plant response rating” value (goosegrass [15]; [25]) was 0 and the “Plant response rating, Goosegrass” value (goosegrass [15]; 500 g ai/ha) was 50. The “Kochia plant response rating” value (kochia [16]; [25]) was 90, the “Plant response rating, Kochia” value (kochia [16]; 500 g ai/ha) was 90 and the “Oat, Wild plant response rating” value (oat, wild [17]; [25]) was 70. The “Plant response rating, Oat, Wild” value (oat, wild [17]) was 70, the “Pigweed, Palmer plant response rating” value (pigweed, palmer [18]; [25]) was 40 and the “Plant response rating, Pigweed, Palmer” value (pigweed, palmer [18]) was 60. For the same compound, the “Ragweed plant response rating” value (ragweed [19]; [25]) was 0, the “Plant response rating, Ragweed” value (ragweed [19]) was 0 and the “Ryegrass, Italian plant response rating” value (ryegrass, Italian [20]; [25]) was 0. For the same compound, the “Plant response rating, Ryegrass, Italian” value (ryegrass, Italian [20]) was 20, the “Soybean plant response rating” value (soybean [21]; [25]) was 70 and the “Plant response rating, Soybean” value (soybean [21]) was 100. For the same compound, the “Wheat plant response rating” value (wheat [22]; [25]) was 0, the “Plant response rating, Wheat” value (wheat [22]) was 10 and the “Galium plant response rating” value (galium; [25]) was 60. For the same compound, the “Plant response rating, Galium” value (galium; 500 g ai/ha) was 70, the “Horseweed plant response rating” value (horseweed; [25]) was 0 and the “Plant response rating, Horseweed” value (horseweed; 500 g ai/ha) was 0. For the same compound, the “Plant response rating, Barnyardgrass” value (barnyardgrass) was 0, the “Plant response rating, Ducksalad” value (ducksalad) was 0 and the “Plant response rating, Rice” value (rice) was 0. The “Plant response rating, Sedge, Umbrella” value (sedge, umbrella) was 0.
With `Cc1cccc2c1O[C@@H](C)CN2C(=O)c1cccc(-n2cnc(Cl)n2)c1` [Compound 69] the “Plant response rating, Blackgrass” value (blackgrass [1]; [23]) was 40, the “Plant response rating, Blackgrass” value (blackgrass [1]; [24]) was 90 and the “Plant response rating, Corn” value (corn [2]; [23]) was 30. The “Plant response rating, Corn” value (corn [2]; [24]) was 30, the “Plant response rating, Foxtail, Giant” value (foxtail, giant [3]; [23]) was 90 and the “Plant response rating, Foxtail, Giant” value (foxtail, giant [3]; [24]) was 90. The “Plant response rating, Goosegrass” value (goosegrass [4]; [23]) was 90, the “Plant response rating, Goosegrass” value (goosegrass [4]; [24]) was 100 and the “Plant response rating, Kochia” value (kochia [5]; [23]) was 60. For the same compound, the “Plant response rating, Kochia” value (kochia [5]; [24]) was 70, the “Plant response rating, Oat, Wild” value (oat, wild [6]; [23]) was 20 and the “Plant response rating, Oat, Wild” value (oat, wild [6]; [24]) was 70. For the same compound, the “Plant response rating, Pigweed, Palmer” value (pigweed, palmer [7]; [23]) was 20, the “Plant response rating, Pigweed, Palmer” value (pigweed, palmer [7]; [24]) was 90 and the “Plant response rating, Ragweed” value (ragweed [8]; [23]) was 0. The “Plant response rating, Ragweed” value (ragweed [8]; [24]) was 0, the “Plant response rating, Ryegrass, Italian” value (ryegrass, Italian [9]; [23]) was 80 and the “Plant response rating, Ryegrass, Italian” value (ryegrass, Italian [9]; [24]) was 80. The “Plant response rating, Soybean” value (soybean [10]; [23]) was 0, the “Plant response rating, Soybean” value (soybean [10]; [24]) was 0 and the “Plant response rating, Wheat” value (wheat [11]; [23]) was 10. For the same compound, the “Plant response rating, Wheat” value (wheat [11]; [24]) was 20, the “Plant response rating, Blackgrass” value (blackgrass [12]; 125 g ai/ha, postemergence, 10 days, visual injury, 0 to 100 scale (0 no effect, 100 complete control)) was 0 and the “Plant response rating, Blackgrass” value (blackgrass [12]; 500 g ai/ha, Postemergence, 0 to 100 scale) was 60. For the same compound, the “Plant response rating, Corn” value (corn [13]; 125 g ai/ha) was 10, the “Plant response rating, Corn” value (corn [13]; 500 g ai/ha) was 30 and the “Plant response rating, Foxtail, Giant” value (foxtail, giant [14]; 125 g ai/ha) was 20. For the same compound, the “Plant response rating, Foxtail, Giant” value (foxtail, giant [14]; 500 g ai/ha) was 80, the “Plant response rating, Goosegrass” value (goosegrass [15]; 125 g ai/ha) was 0 and the “Plant response rating, Goosegrass” value (goosegrass [15]; 500 g ai/ha) was 20. For the same compound, the “Plant response rating, Kochia” value (kochia [16]; 125 g ai/ha) was 20, the “Plant response rating, Kochia” value (kochia [16]; 500 g ai/ha) was 60 and the “Plant response rating, Oat, Wild” value (oat, wild [17]) was 30. The “Plant response rating, Pigweed, Palmer” value (pigweed, palmer [18]) was 40, the “Plant response rating, Ragweed” value (ragweed [19]) was 30 and the “Plant response rating, Ryegrass, Italian” value (ryegrass, Italian [20]) was 70. For the same compound, the “Plant response rating, Soybean” value (soybean [21]) was 100, the “Plant response rating, Wheat” value (wheat [22]) was 10 and the “Plant response rating, Galium” value (galium; 125 g ai/ha) was 60. The “Plant response rating, Galium” value (galium; 500 g ai/ha) was 100, the “Plant response rating, Horseweed” value (horseweed; 125 g ai/ha) was 0 and the “Plant response rating, Horseweed” value (horseweed; 500 g ai/ha) was 0. The “Plant response rating, Barnyardgrass” value (barnyardgrass) was 0, the “Plant response rating, Ducksalad” value (ducksalad) was 0 and the “Plant response rating, Rice” value (rice) was 0. For the same compound, the “Plant response rating, Sedge, Umbrella” value (sedge, umbrella) was 0.

Reference: patent US20260262643A1, “HERBICIDAL BENZOXAZINES” (FMC CORPORATION, priority 2022, published 2026)
